Results on 6 compounds are retold here after US10392599B2, “Method for non-freeze low-temperature preservation of mammalian embryo or fertilized egg” (NATIONAL FEDERATION OF AGRICULTURAL COOPERATIVE ASSOCIATIONS, priority 2012, dated 2019).

The nature of series [1]: pH of the preservative solution upon completion of preservation. In kind it is physicochemical. To be noted: for pH of the medium upon completion of the refrigerated storage for 7 days: Good's buffer 25 mM, FBS 50% (v/v), medium 199; for pH upon completion of preservation: medium 199, 7 days. As for the experimental part:
Preservation of bovine embryos was carried out as follows (FIG. 1). First, a preservative solution alone was sucked into a straw having a capacity of 0.25 ml, and, after introduction of an air layer, a bovine embryo contained in the preservative solution was sucked. Thereafter, an air layer was introduced, and the preservative solution alone was sucked again. The straw was then sealed. Subsequently, the straw containing the sucked bovine embryo was immersed in water contained in a plastic container (plastic tube) which had been preliminarily cooled to 4 to 5° C. The plastic container was then stored in a refrigerator for 7 days at 4 to 5° C. […]

The test system of series [2] is bovine embryos. Kind of series: in vitro culture test of low-quality bovine embryos after 7 days of non-freezing preservation (survival, hatching). It counts as cell-based, Japanese Black Cattle and Holstein Cattle. To be noted: for Hatched embryos (%) / Survival rate (%) / Hatched embryos: number / Survival rate: number of surviving embryos: medium 199, low temperature 7 days; for Hatched embryos: number / Survival rate: number of surviving embryos: out of N; for Number of hatched embryos (%) / Number of live embryos (%) / Number of hatched embryos / Number of live embryos: medium 199, 7 days non-frozen. As for the experimental part: (§1) Embryos collected from donor bovine animals of Japanese Black Cattle and Holstein Cattle after superovulation were evaluated for their qualities according to the regulation by International Embryo Transfer Society (IETS manual. Manual of the international embryo transfer society. In: Stringfellow D A, Seidel S M, editors. Savoy, Ill., USA: IETS 1998). Low-quality embryos were subjected to an in vitro culture test after 7 days of non-freezing preservation, and high-quality embryos were subjected to investigation of the conception rate after implantation to recipient cattle.
(§2) Preservation of bovine embryos was carried out as follows (FIG. 1). First, a preservative solution alone was sucked into a straw having a capacity of 0.25 ml, and, after introduction of an air layer, a bovine embryo contained in the preservative solution was sucked. Thereafter, an air layer was introduced, and the preservative solution alone was sucked again. The straw was then sealed. Subsequently, the straw containing the sucked bovine embryo was immersed in water contained in a plastic container (plastic tube) which had been preliminarily cooled to 4 to 5° C. The plastic container was then stored in a refrigerator for 7 days at 4 to 5° C.
(§3) After the non-freezing preservation, the bovine embryo was washed 3 times by immersion in PBS(+) containing 5% (v/v) fetal bovine serum (FBS). The washed bovine embryo was cultured under 5% CO2 at 38° C. in CR1aa medium containing 5% (v/v) FBS for 48 hours. Morphological observation was carried out under a stereoscopic microscope, and the embryo was judged to be alive if the progress of cleavage by the culture could be found and the cytoplasmic membrane was not disrupted. Live cells were checked for whether hatching from the zona pellucida could be observed or not. A bovine embryo washed with PBS(+) containing 5% (v/v) FBS was nonsurgically implanted into the deep part of the corpus-luteum-side uterine horn of each recipient cattle on Day 6 to 8 of an estrous cycle (the date of estrus was defined as Day 0). On Days 30 and 60 of the estrous cycle, pregnancy diagnosis was carried out. For a significance test to verify the effect of the embryo preservation solution according to the present invention, a χ^2 test was used.
(§4) To medium 199 (Invitrogen) supplemented with antibiotics (penicillin G potassium and streptomycin sulfate), FBS was added to 20 to 50% (v/v), and HEPES was also added to a concentration of 0 to 100 mM. In the conception test, a group in which a special peptide having a protection effect against low temperature (mature Nfel1, SEQ ID NO:2) was added was also provided. In addition, in order to investigate the effects of other Good's buffers other than HEPES, preservation solutions were prepared by adding FBS and a Good's buffer (PIPES or MOPS) to medium 199 such that the concentration of FBS was 50% (v/v) and the concentration of the Good's buffer was 25 mM. These preservation solutions were sterilized by filtration through a filter having a pore size of 0.2 μm, and stored in a refrigerator until use.
Using medium 199 to which a Good's buffer was added at 25 mM (FBS concentration, 50% (v/v) FBS), bovine embryos were preserved at low temperature for 7 days, and the survival rate and the hatching rate were investigated by the method described above. […] In Table 3, “pH” indicates the pH of the medium upon completion of the refrigerated storage for 7 days.

The test system of series [3] is bovine embryos. Kind of series: conception test: implantation of high-quality bovine embryos preserved 7 days in the non-frozen state into recipient cattle. To be noted: 7 days non-frozen, medium 199, 50% (v/v) FBS, 25 mM HEPES. It counts as in vivo. As to the method:
as §1, §2, §3, §4
Subsequently, the conception ability of high-quality bovine embryos that had been preserved in the non-frozen state for 7 days was investigated. Since the concentration of HEPES generally recommended for use in cell culture is 10 to 25 mM (Luo S et al., Effect of HEPES buffer on the uptake and transport of P-glycoprotein substrates and large neutral amino acids. Mol Pharm 2010; 7:412-420), the concentration of HEPES in the non-freezing preservative solution used in the present test for investigation of the conception ability was set to 25 mM. The special recombinant peptide having a protection effect against low temperature (mature Nfel1 peptide) was added to medium 199 containing 50% (v/v) FBS supplemented with 25 mM HEPES, to see whether the peptide improves the conception ability or not.

[4] abbreviates: Good's buffer 25 mM, FBS 50% (v/v).
Where [5] appears, read: 12.5 mM HEPES, 20% FBS, 35 tested embryos.
Where [6] appears, read: 12.5 mM HEPES, 50% FBS, 35 tested embryos.
Where [7] appears, read: 25 mM HEPES, 20% FBS, 36 tested embryos.
The mark [8] stands for this setting: 25 mM HEPES, 50% FBS, 36 tested embryos.
Setting [9] is: 50 mM HEPES, 20% FBS, 30 tested embryos.
[10] abbreviates: 50 mM HEPES, 50% FBS, 30 tested embryos.
Setting [11] is: 100 mM HEPES, 50% FBS, 20 tested embryos.
Where [12] appears, read: 25 mM tris (pH adjusted to 7.2 with hydrochloric acid), medium 199, 50% (v/v) FBS, 7 days.

As for `O=S(=O)(O)CCCN1CCN(CCO)CC1` [EPPS, 3-[4-(2-Hydroxyethyl)-1-piperazinyl]propanesulfonic acid], the “pH of the medium upon completion of the refrigerated storage for 7 days” value (“pH of the medium upon completion … for 7 days” for short) in series [1] stood at 7.3. Besides, in the series on bovine embryos [2] (setting [4]), the “Hatched embryos (%)” value was 10.0%, the “Survival rate (%)” value was determined as 35.0%, the “Hatched embryos: number” value came to 2 and the “Survival rate: number of surviving embryos” value (shortened to “Survival rate: number”) came out at 7.
`O=S(=O)(O)CCN1CCN(CCO)CC1` [HEPES, 4-(2-hydroxyethyl)-1-piperazineethanesulfonic acid]: the “pH upon completion of preservation” value in series [1] (12.5 mM HEPES, 20% FBS) was found to be 7.4; in series [1] (12.5 mM HEPES, 50% FBS), 7.4; in series [1] (25 mM HEPES, 20% FBS) it was 7.3; in series [1] (25 mM HEPES, 50% FBS), 7.0; in series [1] (50 mM HEPES, 20% FBS), 6.9; in series [1] (50 mM HEPES, 50% FBS), 6.8. The “pH upon completion of preservation” value in series [1] (100 mM HEPES, 50% FBS) is given as 6.9. Also, the “pH of the medium upon completion … for 7 days” value in series [1] is 7.0. In series [1] (HEPES-containing solutions of Table 1), the “pH of the non-freezing preservative solution containing HEPES upon completion of the preservation” value lay in the range of 6.9 to 7.4. Moreover, the conception rate with bovine embryos [3] (high-quality bovine embryos) is on record as 75.0%. The “Conceptus number on Day 30 (%)” value with bovine embryos [3] is on record as 75.0%. Also, the “Conceptus number on Day 60 (%)” value with bovine embryos [3] is given as 75.0%. Moreover, the birth of calves entry in the series on bovine embryos [3] is “birth of normal calves could be observed”. Besides, the “death of early embryos between Day 30 and Day 60 of pregnancy” value in the series with bovine embryos [3] is given as “not found”. Further, in the series on bovine embryos [3] (16 implanted embryos), the “Conceptus number on Day 30” value was 12. The “Conceptus number on Day 60” value with bovine embryos [3] (16 implanted embryos) is reported as 12. Further, the “Number of hatched embryos (%)” value with bovine embryos [2] (12.5 mM HEPES, 20% FBS) is recorded as 8.6%; in the series with bovine embryos [2] (12.5 mM HEPES, 50% FBS), 25.7%; with bovine embryos [2] (25 mM HEPES, 20% FBS), 25.0%; in the series with bovine embryos [2] (25 mM HEPES, 50% FBS), 36.1%; in the series on bovine embryos [2] (50 mM HEPES, 20% FBS), 26.7%; in the series with bovine embryos [2] (50 mM HEPES, 50% FBS) it was 33.3%. Moreover, in the series with bovine embryos [2] (100 mM HEPES, 50% FBS), the “Number of hatched embryos (%)” value was found to be 20.0%. The “Number of live embryos (%)” value with bovine embryos [2] (12.5 mM HEPES, 20% FBS) was 25.7%; in the series with bovine embryos [2] (12.5 mM HEPES, 50% FBS) it was 54.3%; in the series with bovine embryos [2] (25 mM HEPES, 20% FBS) it was 63.9%; with bovine embryos [2] (25 mM HEPES, 50% FBS), 69.4%; in the series on bovine embryos [2] (50 mM HEPES, 20% FBS) it was 63.3%; in the series on bovine embryos [2] (50 mM HEPES, 50% FBS), 73.3%. Further, the “Number of live embryos (%)” value with bovine embryos [2] (100 mM HEPES, 50% FBS) is listed as 65.0%. Moreover, the “Number of hatched embryos” value in the series with bovine embryos [2] (setting [5]) was determined as 3; in the series with bovine embryos [2] (setting [6]) it was 9; in the series on bovine embryos [2] (setting [7]), 9; in the series on bovine embryos [2] (setting [8]), 13; in the series on bovine embryos [2] (setting [9]) it was 8; in the series on bovine embryos [2] (setting [10]), 10. For the same compound, in the series on bovine embryos [2] (setting [11]), the “Number of hatched embryos” value was 4. The “Number of live embryos” value in the series on bovine embryos [2] (setting [5]) is recorded as 9; in the series with bovine embryos [2] (setting [6]), 19; with bovine embryos [2] (setting [7]) it was 23; in the series with bovine embryos [2] (setting [8]) it was 25; with bovine embryos [2] (setting [9]), 19; in the series on bovine embryos [2] (setting [10]), 22. Besides, the “Number of live embryos” value in the series with bovine embryos [2] (setting [11]) is on record as 13. For the same compound, the “effect to protect embryos during non-freezing low-temperature preservation, compared among Good's buffers” value with bovine embryos [2] (Good's buffer 25 mM, FBS 50% (v/v), medium 199, 7 days) was “highest effect”. Besides, the “Hatched embryos (%)” value in the series on bovine embryos [2] (setting [4]) is on record as 36.1%. Further, the “Survival rate (%)” value in the series on bovine embryos [2] (setting [4]) amounted to 69.4%. The “Hatched embryos: number” value in the series with bovine embryos [2] (setting [4]) is 13. The “Survival rate: number” value in the series with bovine embryos [2] (setting [4]) was 25. For the same compound, the “survival rate after preservation for 7 days compared to the HEPES-free group” value in the series on bovine embryos [2] (HEPES 12.5 to 100 mM, low-quality bovine embryos) is recorded as “higher survival rate”. In the series with bovine embryos [2] (HEPES 25 to 50 mM, FBS 50% (v/v)), the “rate of hatching from the zona pellucida” value was “especially high”.
Consider `O=S(=O)(O)CCCN1CCOCC1` [MOPS, 3-Morpholinopropanesulfonic acid], for which the “pH of the medium upon completion … for 7 days” value in series [1] amounted to 7.0. Moreover, in the series with bovine embryos [2] (setting [4]), the “Hatched embryos (%)” value is 25.0%, the “Survival rate (%)” value stood at 45.0%, the “Hatched embryos: number” value stood at 5 and the “Survival rate: number” value worked out at 9.
For `O=S(=O)(O)CCN1CCN(CCS(=O)(=O)O)CC1` [PIPES, Piperazine-1,4-bis(2-ethanesulfonic acid)], in series [1], the “pH of the medium upon completion … for 7 days” value is recorded as 7.0. For the same compound, in the series on bovine embryos [2] (setting [4]), the “Hatched embryos (%)” value was 25.0%, the “Survival rate (%)” value came to 40.0%, the “Hatched embryos: number” value is listed as 5 and the “Survival rate: number” value is 8.
For `O=S(=O)(O)CCNC(CO)(CO)CO` [TES, N-Tris(hydroxymethyl)methyl-2-aminoethanesulfonic acid], in that order: 7.2, 15.0%, 30.0%, 3 and 6.
Regarding “tris(hydroxymethyl)aminomethane [reference compound]”, the “pH after the low-temperature preservation” value in series [1] (25 mM tris, medium 199, 50% (v/v) FBS, 7 days) is recorded as 7.2. Further, in the series on bovine embryos [2] (setting [12]), the “hatching rate after the preservation” value stood at 5.0% and the “survival rate after the preservation” value is given as 10.0%.
